Laboratory results published in patent publication US20200079814A1, “Nucleotides comprising an N-[(S)-1-cyclobutoxycarbonyl]phosphoramidate moiety and analogs and application thereof” (priority 2017, published 2020).
Values joined by “and” are separate entries in the source; they are usually repeats but may differ in a detail not shown here. Identical values can stand only once. Like-named read-outs stand apart in the source and are kept apart here. Marks after values point to notes of the source that are not given here.

Key:
[1] = tested on: HIV strain NL4.3 carrying the GFP-reporter (NL4.3-GFP); assay: microbe, parasite or virus in culture; assay type: cell-based; details: for EC50: Human immunodeficiency virus 1, SUP-T1, 45 h; for SI = CC50/EC50: SupT1 cells
Procedure: (§1) The antiviral activity of tested compounds was evaluated on the T-lymphocytes line, SupT1. The cells were infected with the HIV strain NL4.3 carrying a gene encoding the green fluorescent protein (NL4.3-GFP). A virus preparation was obtained by means of transfection of the 293T cells of […] DNA. After 48 hours of transfection, the medication was frozen and stored until being used. To increase the efficiency of infection, the suspension of SupT1 cells was sedimented from the infection mixture by centrifugation. Tested compounds were added to the cells immediately before adding the virus. After 2 hours of incubation, the infection mixture was replaced by a fresh culture medium with tested compounds. The efficiency of infection was evaluated after 45 hours by computing the percentage of fluorescence-bright cells against uninfected cell cultures. Concurrently, the cytotoxicity of tested compounds was evaluated in the same, but uninfected, cell line SupT1 using the XTT reagent. To determine antiviral activity and cytotoxicity, serial tenfold dilutions of the preparations were used (starting with 10 j-M for antiviral activity and from 100 μM for cytotoxicity). DMSO (0.1%) was used for negative control. The values of EC50, CC50 and SI (selectivity index) were found. The quality of tests was evaluated based on the following controls: signal to background ratio, integrase inhibitor raltegravir (1 μM), and reproducibility of test results. Emetine (0.03, 0.09, and 0.2 μM) was used as the reference for cytotoxicity evaluation.

[2] = Cytotoxicity in uninfected SupT1 cells (XTT reagent); assay type: cell-based; details: human, uninfected SupT1 cells (T-lymphocyte line)
Procedure: as §1

[3] = tested on: HCV replicon, genotype 1b (gT1b HCV NS5B); details: cited from earlier work; for EC50: from hcvdruginfo.ca
[4] = tested on: Huh7 human hepatocellular carcinoma cell line; details: from M. J. Sofia et al. J. Med. Chem. 2010; cited from earlier work
[5] = from M. J. Sofia et al. J. Med. Chem. 2010; cited from earlier work
[6] = from M. J. Sofia et al. J. Med. Chem. 2010; cited from earlier work; remark: listed apart in the source
[7] = from M. J. Sofia et al. J. Med. Chem. 2010; cited from earlier work; remark: listed apart in the source
[8] = from M. J. Sofia et al. J. Med. Chem. 2010; cited from earlier work; remark: listed apart in the source
[9] = physchem; details: for half-life at 1 μM: simulated gi fluid
Procedure: (§2) Initial compositions comprising the prodrug of formula 1B.7 (the tested compounds) were prepared with a concentration of 10 mM in DMSO. From said compositions, 100-fold working solutions were prepared with a concentration of 100 μM in a mixture of acetonitrile:water with a volumetric ratio of 1:1.
b) Stability in Artificial Gastric and Intestinal Juices.
The tested composition comprising the prodrug of formula 1B.7 in a final concentration of 1 μM was incubated in artificial gastric juice (0.2% NaCl in 0.7% v/v HCl) and artificial intestinal juice (0.05M KH2PO4, pH 6.75). The incubation was performed in a Vortemp56 shaking incubator at 37° C. with stirring at a rate of 300 rev/min. […] The samples were then centrifuged, and the supernatant (150 μl) was sampled for analysis […]. The incubation was performed in two replicates, with each sample measured twice.
Samples were analyzed using an HPLC-MS/MS technique developed for each tested prodrug, wherein the chromatographic system 1290 Infinity II (Agilent Technologies) was combined with the tandem mass spectrometer QTRAP5500 (AB Sciex). When developing conditions for mass-spectrometric detection, the solutions of tested compounds in a mixture of acetonitrile-water 1:1 with a concentration of 100 ng/ml were injected directly into the mass spectrometer using a syringe pump with electrospray ionization in a positive ion mode. Scanning in a total ion current mode (MS1) allowed us to identify a molecular ion for each compound, and basic product ions were recorded in MS2 mode. Then, to attain maximum sensitivity, the MS/MS technique was optimized in MRM mode. In quantitative chromatogram processing, the most intensive MRM transition was used for the analyte and the internal standard. Separation was carried out by means of linear gradient elution chromatography on a YMC Triart C18 column (50×2 mm, 1.9 μm) in a mobile phase consisting of 0.1% formic acid in water and 0.1% formic acid in acetonitrile. Tolbutamide (Fluka) was used as the internal standard.
(§3) Half-life (T1/2) was found from the kinetics of tested prodrug elimination in an antiviral composition during incubation in a biological matrix. The computations were based on the values of chromatographic peak areas for compounds in test samples normalized to the internal standard signal. From linear dependence of log normalized areas of chromatographic peaks on time, the constant of elimination rate was calculated (k is linear section slope).

[10] = pooled human blood plasma, 1 μM, 37° C.
Procedure: as §2
(§4) The samples were then centrifuged, and the supernatant (150 μl) was sampled for analysis […]. The incubation was performed in two replicates, with each sample measured twice.
(§5) Samples were analyzed using an HPLC-MS/MS technique developed for each tested prodrug, wherein the chromatographic system 1290 Infinity II (Agilent Technologies) was combined with the tandem mass spectrometer QTRAP5500 (AB Sciex). […] Scanning in a total ion current mode (MS1) allowed us to identify a molecular ion for each compound, and basic product ions were recorded in MS2 mode. […] In quantitative chromatogram processing, the most intensive MRM transition was used for the analyte and the internal standard. […]
as §3, with “The computations were based on the values of chromatographic peak areas for compounds in test samples normalized to the internal standard signal.” left out

[11] = Stability in human liver S9 fraction
Procedure: as §2, §4, §5
as §3, with “The computations were based on the values of chromatographic peak areas for compounds in test samples normalized to the internal standard signal.” left out

[12] = tested on: HCV; details: literature; cited from earlier work
[13] = tested on: SupT1 cells; assay: Cytotoxicity in uninfected SupT1 cells (XTT reagent); assay type: cell-based
Procedure: as §1

[14] = tested on: HCV replicon, genotype 1b (gT1b HCV NS5B); assay: Anti-HCV activity in Huh7 cells stably transfected with an HCV replicon; assay type: cell-based
Procedure: The antiviral activity of tested compositions comprising prodrugs was evaluated using an Huh7 human hepatocellular carcinoma cell line stably transfected with an HCV replicon. A cell suspension in a complete culture medium (DMEM 1X, Cellgro; cat. #10-013-CV) was transferred into 96-well plates (50 μl per well) with a final density of 7500 cells per well. The serial dilutions of tested prodrugs were prepared from a fresh 200-fold generic solution in DMSO with 11 concentration points dilution for each step, starting from 20 nM in a complete medium and were used as 2-fold solutions in two replicates. Minimum 4 hours after planting the cells, 50 μl of serial prodrug dilutions was added to each well. […] The plate with cells was incubated for 3 days at 37° C. under humidified 5% CO2. Upon completion of incubation, the medium was removed by turning the plate over and shaking it carefully. The cells were fixed for one minute with 100 μl of a 1:1 acetone:methanol solution, washed 3 times with a phosphate buffer (PBS), and blocked for 1 h at room temperature using a 10% fetal bovine serum (FBS) in PBS (150 μl/well). […] The reaction was stopped by 2N H2SO4 (100 μl/well), and OD490 was measured using the multifunctional reader Victor^3 V 1420 (Perkin Elmer). The values of EC50 for tested prodrugs were measured from an activity curve plotted using the GraphPad Prizm software.

[15] = gT1b, from M. J. Sofia et al. J. Med. Chem. 2010

Structure (SMILES): C[C@H](Cn1cnc2c(N)ncnc21)OC[P@@](=O)(N[C@@H](C)C(=O)OC1CCC1)Oc1ccccc1 [Prodrug 1A.1, (S)-cyclobutyl 2-((S)-(((R)-1-(6-amino-9H-purin-9-yl)propan-2-yloxy)methyl) (phenoxy)phosphorylamino)-propanoate]
- EC50 [1]: 27 nM
- selectivity, times higher than TAF ([1]; SupT1 HIV test, versus TAF): 1.4 times
- SI = CC50/EC50 [1]: >3704
- CC50 [2]: > 100000 nM

Structure (SMILES): CC(C)OC(=O)[C@H](C)NP(=O)(OC[C@H]1O[C@@H](n2ccc(=O)[nH]c2=O)[C@](C)(F)[C@@H]1O)Oc1ccccc1 (stereo partly drawn) [Sovaldi ®, isopropyl (S)-2-{[(2R,3R,4R,5R)-5-(2,4-dioxo-3,4-dihydro-2H-pyrimidin-1-yl)-4-fluoro-3-hydroxy-4-methyl-tetrahydrofuran-2-ylmethoxy]-phenoxy-phosphorylamino}-propionate]
- EC90 [3, 15]: 520 nM
- EC90 ([3]; gT1b, from M. J. Sofia et al. J. Med. Chem. 2010, listed as Sovaldi®): 590 nM
- EC50 ([3]; gT1b): 45 to 170 nM
- EC90 ([3]; genotype 1b (gT1b) HCV): 590 nM
- EC50 ([3]; genotype 1b (gT1b) HCV): 45 to 170 nM
- CC90 [4]: > 100000 nM
- T1/2 human S9 [5]: 0.54 h and 0.57 h
- T1/2 SGF [6]: 22.0* h
- T1/2 SIF [7]: >24* h
- T1/2 human plasma [8]: >24* h

Structure (SMILES): C[C@H](N[P@](=O)(OC[C@H]1O[C@@H](n2ccc(=O)[nH]c2=O)[C@](C)(F)[C@@H]1O)Oc1ccccc1)C(=O)OC1CCC1 [Prodrug 1B.7, (S)-cyclobutyl 2-{(S)-[(2R,3R,4R,5R)-5-(3,4-dihydro-2,4-dioxo-2H-pyrimidin-1-yl)-3-hydroxy-4-methyl-4-fluoro-tetrahydrofuran-2-ylmethoxy]-phenoxy-phosphorylamino}-propanoate]
- T1/2 SGF ([9]; artificial gastric juice, 1 μM, 37° C.): 12.7 h
- T1/2 SIF ([9]; artificial intestinal juice, 1 μM, 37° C.): >24 h
- half-life at 1 μM [9]: 12.7 to 17 h
- half-life at 1 μM ([9]; pH 6.75): > 20 h
- T1/2 human plasma [10]: >24 h
- metabolic rate in human S9 fraction, times faster than Sovaldi ([11]; versus Sovaldi): 11 times
- metabolic rate in human S9 fraction, times faster than compound 2.1 ([11]; versus compound of formula 2.1): 28 times

Structure (SMILES): COc1nc(N)nc2c1ncn2[C@@H]1O[C@H](COP(=O)(N[C@@H](C)C(=O)OCC(C)(C)C)Oc2cccc3ccccc23)[C@@H](O)[C@@]1(C)O (stereo partly shown) [INX-08189]
- EC50 [12]: 10 nM

Structure (SMILES): CC(C)OC(=O)[C@H](C)N[P@](=O)(CO[C@H](C)Cn1cnc2c(N)ncnc21)Oc1ccccc1 [TAF, temofovir alafenamide]
- EC50 [1]: 35 nM
- SI = CC50/EC50 [1]: 2857
- CC50 [13]: > 100000 nM

Structure (SMILES): COc1nc(N)nc2c1ncn2C1O[C@H](COP(=O)(N[C@@H](C)C(=O)OC(C)C)Oc2ccccc2)[C@@H](O)[C@@]1(C)F (stereo partly shown) [PSI-353661]
- EC90 [12]: 8 nM

Structure (SMILES): C[C@H](NP(=O)(OC[C@H]1O[C@@H](n2ccc(=O)[nH]c2=O)[C@](C)(F)[C@@H]1O)Oc1ccccc1)C(=O)OC1CCCCC1 (stereo partly drawn) [Prodrug 2.1, cyclohexyl (S)-2-{[(2R,3R,4R,5R)-5-(2,4-dioxo-3,4-dihydro-2H-pyrimidin-1-yl)-4-fluoro-3-hydroxy-4-methyl-tetrahydrofuran-2-ylmethoxy]-phenoxy-phosphorylamino}-propionate]
- EC90 [3, 15]: 250 nM
- T1/2 human S9 [5]: 1.4 h
- T1/2 SGF [6]: 17* h
- T1/2 SIF [7]: >20* h
- T1/2 human plasma [8]: >24* h

Structure (SMILES): C[C@H](Cn1cnc2c(N)ncnc21)OC[P@](=O)(N[C@@H](C)C(=O)OC1CCC1)Oc1ccccc1 [Prodrug 1A.2, (S)-cyclobutyl 2-((R)-(((R)-1-(6-amino-9H-purin-9-yl)propan-2-yloxy)methyl) (phenoxy)phosphorylamino)-propanoate]
- EC50 [1]: 38 nM
- SI = CC50/EC50 [1]: >2632
- CC50 [2]: > 100000 nM

Structure (SMILES): CC(C)(CO)C(=O)SCCOP(=O)(NCc1ccccc1)OC[C@H]1OC(n2cnc3c(=O)[nH]c(N)nc32)[C@](C)(O)[C@@H]1O (stereo partly shown) [IDX-184]
- EC50 [12]: 400 nM

Structure (SMILES): C[C@H](N[P@](=O)(OC[C@H]1O[C@@H](n2ccc(=O)[nH]c2=O)[C@](C)(F)[C@@H]1O)Oc1ccccc1)C(=O)OC1CC1 [Prodrug 2.2, (S)-cyclopropyl 2-((S)-(((2R,3R,4R,5R)-5-(2,4-dioxo-3,4-dihydropyrimidin-1(2H)-yl)-3-hydroxy-4-methyl-4-fluoro-tetrahydrofuran-2-yl)methoxy)-(phenoxy)-phosphorylamino)-propanoate]
- EC90 ([14]; 10% FBS): 410 nM
- EC50 ([14]; Hepatitis C virus, Huh-7, 10% FBS): 73 nM
